The source of these data is PMC6150245 (Molecules : A Journal of Synthetic Chemistry and Natural …, 2017).

≈ marks a conversion by molar mass, not a printed value. Bridge positions count the residues as written; N and C are the ends. Peptide text beside a SMILES is read from it. I, II: the chains in the order shown.

Data set [1] relates to E. coli CA4. Format: cell-based, Escherichia coli. The conditions noted are these: for MIC: E. coli CA4 (commensal), CAMHB, 24 h, 37 °C, duplicate; for MBC: E. coli CA4, sub-culture on MH agar, 99.9% death. Here is the method: (§1) After confirming antibacterial activity, the peptides were tested against gram-positive and gram-negative multidrug-resistant bacteria, including strains of clinical origin. The peptides, p-BthTX-I, des-Lys^12/(p-BthTX-I)2, and Lys^13-(p-BthTX-I)2 were serially diluted (512–1 μM) in cation-adjusted BBL MH II broth (CAMHB; Becton, Dickson and Co., Sparks, MD, USA) as described by CLSI. Bacteria at 5.0 × 10^5 CFU/mL were added to the media and incubated for 24 h at 37 °C. […] Assays were performed in duplicates, and sterile broth was used as the negative control. To determine the minimal bactericidal concentration (MBC), 100 µL from each well of the MIC assay plates that inhibited bacterial growth were sub-cultured onto MH agar (MHA) plates. […] If the ratio of MBC/MIC was >4, the activity of the peptide was considered bacteriostatic, as described previously.

Data set [2] relates to E. coli ATCC35218. Format: cell-based, Escherichia coli. As to conditions: for MIC: E. coli ATCC35218, CAMHB, 24 h, 37 °C, duplicate; for MBC: E. coli ATCC35218, sub-culture on MH agar, 99.9% death. Here is the method: as §1
For data set [3], the system named is human red blood cells. Briefly: Hemolysis assay. The conditions noted are these: 1% (v/v) human erythrocytes in Tris-saline pH 7.4, 1 h, 37 °C, absorbance 405 nm, triplicate. It counts as cell-based. Here is the method:
Peptide hemolysis assays were performed as previously described by Castro et al.. Briefly, freshly prepared human red blood cells (RBCs) were washed three times with 0.01 M Tris-HCl (pH 7.4) containing 0.15 M NaCl (Tris-saline). A suspension of 1% (v/v) erythrocytes was made with packed RBCs resuspended in Tris-saline. Peptides were dissolved in Tris-saline at an initial concentration of […] and serially diluted in the same buffer to determine the concentration that triggered 50% hemolysis (HC50). As the positive control (100% lysis), 1% (v/v) Triton X-100 solution was used. After 1 h of incubation at 37 °C, the samples were centrifuged at 3000× g for 5 min. Then, 100 µL aliquots of the supernatant were transferred to 96-well microplates, and the absorbance was determined at 405 nm. The assay was performed in triplicates.

In data set [4] the test system is S. aureus ATCC25923. Briefly: MIC, microdilution in MH broth (initial screening). Format: cell-based, Staphylococcus aureus. The conditions noted are these: 24 h, 37 °C, resazurin, triplicate. Here is the method: (§2) The minimum inhibitory concentrations (MIC) were determined following the Clinical and Laboratory Standards Institute (CLSI) recommendations. Antibacterial and antifungal activity tests were performed using the microdilution method. For initial screening, peptides were tested against C. albicans ATCC18804, E. coli ATCC25922, and S. aureus ATCC25923. Briefly, bacterial cells in MH broth (80 μL aliquots containing 1.5 × 10^7 CFU) were incubated with synthetic peptides (serial dilution from 512 to 1 μM) dissolved in Milli-Q water. After incubation for 24 h at 37 °C, the microtiter plates were analyzed visually by addition of resazurin. For the antifungal assays, the culture medium was RPMI 1640 buffered with L-glutamine (pH 7.2), 0.165 M morpholinepropanesulfonic acid (MOPS), and 2% glucose. Cell suspensions (final concentration of 1 × 10^3–2.5 × 10^3 CFU/mL) were inoculated on a microdilution plate previously prepared with serially diluted synthetic peptides (128–1 μM). The plates were incubated for 48 h at 37 °C. Each assay was performed in triplicates. Additionally, amphotericin B and fluconazole were used as the control drugs. MIC was defined as the lowest concentration of peptide at which no growth was detected.
(Dilution methods test growth across graded concentrations, often in twofold steps.)

Data set [5] has as its system K. pneumoniae ATCCBAA1705. It counts as cell-based, Klebsiella pneumoniae. As to conditions: for MIC: K. pneumoniae ATCCBAA1705 (KPC), CAMHB, 24 h, 37 °C, duplicate; for MBC: K. pneumoniae ATCCBAA1705, sub-culture on MH agar, 99.9% death. Here is the method:
as §1

For data set [6], the system named is K. pneumoniae NDM-1. It counts as cell-based, Klebsiella pneumoniae. As to conditions: for MIC: K. pneumoniae NDM-1, CAMHB, 24 h, 37 °C; for MBC: K. pneumoniae NDM-1, sub-culture on MH agar, 99.9% death. Here is the method:
as §1

Data set [7] concerns S. aureus SA16. It counts as cell-based, Staphylococcus aureus. As to conditions: S. aureus SA16 (MRSA); for MBC: sub-culture on MH agar, 99.9% death. Here is the method:
as §1

For data set [8], the system named is S. aureus SA88. It counts as cell-based, Staphylococcus aureus. As to conditions: for MIC: S. aureus SA88 (MRSA, daptomycin heteroresistant), CAMHB, 24 h, 37 °C, duplicate; for MBC: S. aureus SA88, sub-culture on MH agar, 99.9% death. Here is the method:
as §1

For data set [9], the system named is E. faecium VRE16. Format: cell-based, Enterococcus faecium. As to conditions: for MIC: E. faecium VRE16 (vancomycin resistant), CAMHB, 24 h, 37 °C, duplicate; for MBC: E. faecium VRE16, sub-culture on MH agar, 99.9% death. Here is the method:
as §1

In data set [10] the test system is E. faecium HSJRP8. Format: cell-based, Enterococcus faecium. As to conditions: for MIC: E. faecium HSJRP8 (daptomycin resistant), CAMHB, 24 h, 37 °C, duplicate; for MBC: E. faecium HSJRP8, sub-culture on MH agar, 99.9% death. Here is the method: as §1
Data set [11] concerns E. coli ATCC25922. Briefly: MIC, microdilution in MH broth (initial screening). It counts as cell-based, Escherichia coli. The conditions noted are these: 24 h, 37 °C, resazurin, triplicate. Here is the method:
as §2

A short description of data set [12]: Serum stability assay. Format: in vitro ADME. As to conditions: 25% human male serum, 37 °C. Here is the method: Crude peptides were purified by semi-preparative HPLC on a Shimadzu system (Tokyo, Japan) using a C18 reversed phase column (10 × 250 mm, Phenomenex, Torrance, CA, USA). Solvent A contained 0.045% trifluoroacetic acid (TFA) in water. Elution was achieved using a linear gradient (5–35%) of solvent B (0.036% TFA in acetonitrile) for 120 min at 5 mL/min. The purity of the peptides was determined by analytical HPLC on a Shimadzu system using a C18 column (4.6 × 150 mm, Phenomenex, Torrance, CA, USA) with a linear gradient of solvent B (5–95%) for 30 min at 1 mL/min. Liquid chromatography-mass spectrometry (LC/MS) was performed using a C18 column (2.0 × 30 mm, Shimadzu) attached to analytical HPLC and an amaZon ion trap mass spectrometer (Bruker Daltonics) using ESI. Peptides were eluted using a linear gradient of solvent B (5–95%) for 15 min at 0.2 mL/min.
Peptide stability assays were performed in diluted serum as previously described with minor modifications. First, 2 mL of 25% human male serum was centrifuged at 3000× g for 10 min; the supernatant was collected and incubated for 15 min at 37 °C. Next, peptides were added to the serum to a final concentration of 100 µM. Then, 200 µL of samples were collected at different time points during the assays, which were performed in duplicate. Analyses were performed by LC/MS and analytical HPLC, as described above.

Consider `CC(C)C[C@H](NC(=O)[C@H](Cc1c[nH]cn1)NC(=O)[C@H](Cc1ccc(O)cc1)NC(=O)[C@H](CCCNC(=N)N)NC(=O)[C@H](Cc1ccc(O)cc1)NC(=O)[C@H](CCCCN)NC(=O)[C@@H](N)CCCCN)C(=O)N[C@@H](CCCCN)C(=O)N1CCC[C@H]1C(=O)N[C@@H](Cc1ccccc1)C(=O)N[C@@H](CSSC[C@H](NC(=O)[C@H](Cc1ccccc1)NC(=O)[C@@H]1CCCN1C(=O)[C@H](CCCCN)NC(=O)[C@H](CC(C)C)NC(=O)[C@H](Cc1c[nH]cn1)NC(=O)[C@H](Cc1ccc(O)cc1)NC(=O)[C@H](CCCNC(=N)N)NC(=O)[C@H](Cc1ccc(O)cc1)NC(=O)[C@H](CCCCN)NC(=O)[C@@H](N)CCCCN)C(=O)N[C@@H](CCCCN)C(=O)N[C@@H](CCCCN)C(=O)O)C(=O)N[C@@H](CCCCN)C(=O)N[C@@H](CCCCN)C(=O)O` [(p-BthTX-I)2], for which the minimal inhibitory concentration (MIC) in data set [1] is 256 µM (≈ 890 µg/mL); in data set [2], 512 µM (≈ 1780 µg/mL); in data set [4] it was 64 µM (≈ 222 µg/mL); in data set [5] it was 256 µM (≈ 890 µg/mL); in [6], 256 µM (≈ 890 µg/mL); in [8], 256 µM (≈ 890 µg/mL). Besides, the figures for the MIC in data set [9], in data set [10] and in [11] were 32 µM (≈ 111 µg/mL), 8 µM (≈ 27.8 µg/mL) and 4 µM (≈ 13.9 µg/mL), respectively. For the same compound, the minimum bactericidal concentration (MBC) in data set [1] was determined as 512 µM (≈ 1780 µg/mL); in data set [2], 512 µM (≈ 1780 µg/mL); in data set [5], 512 µM (≈ 1780 µg/mL); in [6], 512 µM (≈ 1780 µg/mL); in [7], 512 µM (≈ 1780 µg/mL); in data set [8] it was 256 µM (≈ 890 µg/mL). The MBC in [9] and in data set [10] was greater than 512 µM throughout. Besides, the “HC50 (peptide concentration that produced 50% hemolysis)” value in data set [3] is greater than 128 µM. In addition, the “Incubation time after which the peptide was completely degraded in human serum” value in data set [12] (peptide 100 µM, analytical HPLC (C18) and LC/MS, duplicate) was determined as 30 min.
For `CC(C)C[C@H](NC(=O)[C@H](Cc1c[nH]cn1)NC(=O)[C@H](Cc1ccc(O)cc1)NC(=O)[C@H](CCCNC(=N)N)NC(=O)[C@H](Cc1ccc(O)cc1)NC(=O)[C@H](CCCCN)NC(=O)[C@@H](N)CCCCN)C(=O)N[C@@H](CCCCN)C(=O)N1CCC[C@H]1C(=O)N[C@@H](Cc1ccccc1)C(=O)N[C@@H](CSSC[C@H](NC(=O)[C@H](Cc1ccccc1)NC(=O)[C@@H]1CCCN1C(=O)[C@H](CCCCN)NC(=O)[C@H](CC(C)C)NC(=O)[C@H](Cc1c[nH]cn1)NC(=O)[C@H](Cc1ccc(O)cc1)NC(=O)[C@H](CCCNC(=N)N)NC(=O)[C@H](Cc1ccc(O)cc1)NC(=O)[C@H](CCCCN)NC(=O)[C@@H](N)CCCCN)C(=O)O)C(=O)O` [des-Lys^12/Lys^13-(p-BthTX-I)2] (I: H-KKYRYHLKPFC-OH / II: H-KKYRYHLKPFC-OH; disulfide I:11-II:11), the MIC in data set [1] amounted to 64 µM (≈ 190 µg/mL); in [2], 64 µM (≈ 190 µg/mL); in data set [4], 128 µM (≈ 379 µg/mL); in data set [5], 32 µM (≈ 94.8 µg/mL); in data set [6], 256 µM (≈ 759 µg/mL); in data set [7] (CAMHB, 24 h, 37 °C), 128 µM (≈ 379 µg/mL). The MIC in data set [8] was determined as 256 µM (≈ 759 µg/mL); in data set [9], 16 µM (≈ 47.4 µg/mL); in data set [10] it was 8 µM (≈ 23.7 µg/mL); in data set [11] it was 16 µM (≈ 47.4 µg/mL). The MBC in data set [1] was found to be 128 µM (≈ 379 µg/mL); in [2] it was 256 µM (≈ 759 µg/mL); in data set [5], 64 µM (≈ 190 µg/mL); in [6] it was 512 µM (≈ 1520 µg/mL); in data set [7], 128 µM (≈ 379 µg/mL); in data set [8], 512 µM (≈ 1520 µg/mL). Moreover, the values for the minimal bactericidal concentration (MBC) in data set [9] and in [10] were 64 µM (≈ 190 µg/mL) and 32 µM (≈ 94.8 µg/mL), respectively. In data set [3], the “HC50 (peptide concentration that produced 50% hemolysis)” value is on record as greater than 128 µM. In addition, the “Incubation time in human serum after which further degradation products were observed” value in data set [12] (mass spectrometry, data not shown) was found to be 30 h. In data set [12] (product formed from (p-BthTX-I)2 100 µM, LC/MS and HPLC), the “Incubation time in human serum after which the peptide remained intact (stable)” value came to 24 h.

As a reminder, the MIC is the smallest concentration in the dilution series that meets the test's criterion for growth inhibition. Read a low MIC as a more susceptible organism. What is called MBC is the lowest tested concentration that kills the bacteria rather than only halting them.
